Like-named read-outs stand apart in the source and are kept apart here.
Experiments:
human hepatocytes = test: Human hepatocyte stability assay; assay type: in vitro ADME; settings: 1 μM compound, human hepatocytes 1×10^6 cells/mL
Description: The hepatocyte stability assay measures the rate of disappearance of a compound from incubations with cryopreserved suspension hepatocytes from human. Positive controls, including Midazolam, Raloxifene and Dextromethorphan, are included in every experiment. Incubations consist of 1 μM tested compound and suspension of human hepatocytes (1×10^6 cells/mL) in supplemented Williams' E Medium with 10% FBS and 0.5% Penicillin-streptomycin. The hepatocyte suspension was incubated with intermittent shaking 900 rpm at 37° C., in a 5% CO2 incubator. The reaction was stopped by adding methanol containing internal standard (2 μM Tolbutamide) at 2, 10, 20, 40, 60 and 120 minutes after compound addition, depletion of the parent compound was monitored by LC-MS/MS analysis.

KRAS G12V-BRAF complex = KRAS G12V-BRAF complex (Homo sapiens (Human), UniProt P01116+P62937, G12V); test: KRAS G12V-BRAF with CYPA interaction assay (TR-FRET, selectivity test, Example 132); assay type: biochemical
Description: In this example, TR-FRET was used to measure the compound or compound-CYPA dependent disruption of the KRAS G12V-BRAF complex to assess inhibition efficacy. The IC50 ratio between WT KRAS/HRAS/NRAS and KRAS G12V mutant was calculated as selective index, which indicated tolerability and safety profile. Disruption of WT KRAS/HRAS/NRAS-BRAF complex by compounds was detected respectively. In assay buffer containing 25 mM HEPES (PH-7.4,4-(2-hydroxyethyl)-1-piperazineethanesulfonic acid, Thermo, 15630080), 0.002% Tween20, 0.1% BSA, 100 mM NaCl, 5 mM MgCl2, 10 μM GMPPNP (Guanosine 5′-[β,γ-imido]triphosphate trisodium salt hydrate, Sigma, G0635), tagless CYPA and GMPPNP loaded 6His-RAS proteins, and GST-BRAF^RBD were mixed in a well of a 384-well assay plate at final concentrations of 50 nM, 6.25 nM and 1 nM, respectively. Compound was present in plate wells as a 16-point 3-fold dilution series starting at a final concentration of 10 μM and incubated for 3 hours. A mixture of MAb Anti-6His-XL665 (Cisbio, 61HISXLB) and Mab anti-GST-TB cryptate (Cisbio, 61GSTTLB) was then added at a final concentration of 6.67 nM and 0.21 nM, respectively, and the plate was incubated for an additional 1.5 hours. TR-FRET signal was read on a PHERstar FSX microplate reader (Ex320 nm, Em 665/615 nm). Compounds that facilitate disruption of the RAS-BRAF complex were identified as those eliciting a decrease in the TR-FRET ratio relative to DMSO control wells.

OCI-AML-3 = test: Cell proliferation, CTG 3D, 7 d; assay type: cell-based; settings: Homo sapiens
Outline: (§1)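 Day −1, cells plated in low-attachment round-bottom wells and incubated at 37° C in 5% CO2. Day 0, compound dispensed as 9 doses at 3-fold steps with DMSO held at 0.2%. Day 7, CellTiter-Glo 3D added and shaken 30 min before luminescence reading.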

CHL1 = test: Cell proliferation, CTG 3D, 7 d; assay type: cell-based; settings: Homo sapiens, CHL-1; CHL1, KRAS (WT ampl)
Outline: as §1

SJSA-1 = test: Cell proliferation, CTG 3D, 7 d; assay type: cell-based; settings: Homo sapiens
Outline: as §1

HepG2 = test: Cell proliferation, CTG 3D, 7 d; assay type: cell-based; settings: Homo sapiens
Outline: as §1

GP5d = test: Cell proliferation, CTG 3D, 7 d; assay type: cell-based; settings: Homo sapiens, KRAS (G12D)
Outline: as §1

Mia-pa-ca-2 = test: Cell proliferation, CTG 3D, 7 d; assay type: cell-based; settings: Homo sapiens, MIA PaCa-2; Mia-pa-ca-2, KRAS (G12C)
Outline: as §1

Capan-2 = test: Cell proliferation, CTG 3D, 7 d; assay type: cell-based; settings: Homo sapiens
Outline: as §1

MDA-MB-231 = test: Cell proliferation, CTG 3D, 7 d; assay type: cell-based; settings: Homo sapiens
Outline: as §1

NCI-H2347 = test: Cell proliferation, CTG 3D, 7 d; assay type: cell-based; settings: Homo sapiens
Outline: as §1

SW1271 = test: Cell proliferation, CTG 3D, 7 d; assay type: cell-based; settings: Homo sapiens
Outline: as §1

KRAS G12V-BRAF complex, sequence (P01116-2 other isoform, or with tags, fused parts or gaps G12V): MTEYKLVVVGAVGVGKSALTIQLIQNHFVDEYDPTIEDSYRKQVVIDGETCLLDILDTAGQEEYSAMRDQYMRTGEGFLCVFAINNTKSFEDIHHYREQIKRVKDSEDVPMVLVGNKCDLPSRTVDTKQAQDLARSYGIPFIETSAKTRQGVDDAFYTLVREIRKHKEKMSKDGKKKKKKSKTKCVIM
KRAS G12V-BRAF complex, sequence (P62937 whole entry): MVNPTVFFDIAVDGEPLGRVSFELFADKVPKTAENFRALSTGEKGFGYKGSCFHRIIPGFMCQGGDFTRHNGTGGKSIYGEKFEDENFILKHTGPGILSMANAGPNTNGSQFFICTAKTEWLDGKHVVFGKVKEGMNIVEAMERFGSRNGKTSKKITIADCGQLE

SMILES | Hepatic clearance (Human) (human hepatocytes) | IC50 (KRAS G12V-BRAF complex) | IC50 (OCI-AML-3; OCI-AML-3, NRAS (p.Q61L), read-out: IC50) | IC50 (CHL1) | IC50 (SJSA-1; SJSA-1, KRAS (Q61H), read-out: IC50) | IC50 (HepG2; HepG2, NRAS (p.Q61L), read-out: IC50) | IC50 (GP5d) | IC50 (Mia-pa-ca-2) | IC50 (Capan-2; Capan-2) | IC50 (MDA-MB-231; MDA-MB-231, KRAS (G13D), read-out: IC50) | IC50 (NCI-H2347; NCI-H2347, KRAS (L19F), read-out: IC50) | IC50 (SW1271; SW1271, NRAS (p.Q61R), read-out: IC50) | IC50 (OCI-AML-3; OCI-AML-3) | IC50 (SJSA-1; SJSA-1) | IC50 (HepG2; HepG2) | IC50 (Capan-2; Capan-2, KRAS (G12V), read-out: IC50) | IC50 (MDA-MB-231; MDA-MB-231) | IC50 (NCI-H2347; NCI-H2347) | IC50 (SW1271; SW1271)
CO[C@@H](C)c1ncc(N2CCN(C)CC2)cc1-c1c2c3cc(cc4c3n1CCC4)-c1csc(n1)C[C@H](NC(=O)[C@H]1[C@H](C)[C@@H]1C)C(=O)N1CCC[C@H](N1)C(=O)OCC(C)(C)C2 (atropisomer, axis not shown; (M)) [Example 24, (1r,2R,3S)-N-[(7S,13S)-(20M)-20-[2-[(1S)-1-methoxyethyl]-5-(4-methylpiperazin-1-yl)-3-pyridyl]-17,17-dimethyl-8,14-dioxo-15-oxa-4-thia-9,21,30,31-tetrazahexacyclo[23.3.1.1^2,5.1^9,13.0^19,27.0^21,26]hentriaconta-1 (28),2,5 (31), 19,25 (29),26-hexaen-7-yl]-2,3-dimethyl-cyclopropanecarboxamide] | 3.4 mL/min/kg | 7 nM | 3.3 nM | 8.1 nM | 2.6 nM | 2.1 nM | 0.48 nM | 0.064 nM | 0.23 nM | 27 nM | 2 nM | 1.7 nM | – | – | – | – | – | – | –
CCn1c(-c2cc(N3CCN(C)CC3)cnc2[C@H](C)OC)c2c3cc(ccc31)-c1csc(n1)C[C@H](NC(=O)[C@H]1C[C@@H]1C)C(=O)N1CCC[C@H](N1)C(=O)OCC(C)(C)O2 [Example A122, reference compound] | 9 mL/min/kg | 8 nM | – | 9.3 nM | – | – | 0.41 nM | 0.082 nM | – | – | – | – | 8.9 nM | 3.1 nM | 5.5 nM | 0.59 nM | 20 nM | 4.2 nM | 3 nM

From patent publication US20240417410A1, “TRICYCLIC COMPOUNDS FOR THE TREATMENT OF CANCER” (Hoffmann-La Roche Inc., priority 2023, published 2024)
